The values below come from patent US9005581B2, “Modified pyrazine derivatives and uses thereof” (MediBeacon, LLC, priority 2008, dated 2015).

Each structure is given as a SMILES string. Marks after values point to notes of the source that are not given here.

Data set [1] is described as follows: Urine elimination studies. Type of data set: in vivo, Sprague-Dawley rats. The conditions noted are these: rat, 1 mL of 2 mM in PBS by tail vein injection, mean ± SEM (n). The method, then:
Rat urine elimination studies are conducted in either conscious or anesthetized Sprague-Dawley rats. The test compound (1 mL, 2 mM in PBS) is administered by tail vein injection into conscious, restrained rats, with subsequent collection of urine at the time points of 2, 4 and 6 h post injection. The metabolic cages are washed with water to maximize the recovery of urine discharged at each time point. Alternatively, rats are anesthetized with 100 mg/kg Inactin intraperitoneally, a trachea tube is inserted to maintain adequate respiration, and 1 mL of test compound is injected into the lateral tail vein. Rats are placed on 37° C. heating pad during the entire experiment. At 6 h post injection, the abdomen is opened, and the urine is removed from the bladder using a 21 gauge needle and a 3 cc syringe. Quantitation of each compound in urine is performed via HPLC analysis using a set of external calibration standards and fluorescence detection. The percent recovery of compound in urine at each time point is calculated based on the balance of mass.

Data set [2] can be described thus: Non-invasive optical pharmacokinetic studies (fluorescence at the ear). Type of data set: in vivo, Sprague-Dawley rats. The following applies: rat ear fluorescence, 1 mL of 2 mM solution into tail vein; mean ± SEM (n). The method, then:
Male Sprague-Dawley rats (330-380 g) are anesthetized by Inactin (I.P.) or 2% Isoflurane gas anesthesia delivered by a small rodent gas anesthesia machine (RC2, Vetequip, Pleasanton, Calif.). The animals are placed on a heated board where temperature is maintained between 36-38° C. One ear lobe is glued flat to a glass slide positioned approximately 2 mm beneath a fiber optic bundle for recording fluorescence from a test compound passing through the ear. After a 100 second baseline recording, 1 mL of a 2 mM solution is injected into the tail-vein of the rat and the fluorescence signal corresponding to plasma and tissue distribution and subsequent renal clearance of the compound is monitored at the ear. The pharmacokinetic parameters of the compounds are analyzed using WinNonLin pharmacokinetic modeling software (Pharsight, Mountain View, Calif.) and Microsoft (Redmond, Wash.) Excel. This method is used to detect renally excretable compounds of the invention and FIG. 8A provides a plot illustrating non-invasive in vivo fluorescence as a function of time following delivery of a renally excretable compound.
A nominal 473 nm solid state laser source (100) is employed (Power Technology model LDCU12/7314). The laser source is directed into one leg (110) of a silica bifurcated fiber optic bundle (120) (Oriel #77565). The common end of this bifurcated bundle (130) is placed approximately 2 mm from the rat ear (140). The second leg of the bifurcated fiber optic bundle (150) is fitted with a collimating beam probe (160) (Oriel #77644). A long pass filter (170) (Semrock LP02-488RS-25) and narrow band interference filter (180) (Semrock FF01-593/40-25) are placed in front of a photomultiplier tube (190) (Hamamatsu photosensor module H7827-011).
A chopper (200) (Stanford Research Systems model SR540) is placed after the laser and before the launch into the bifurcated cable. The output of the photosensor is connected to a lock-in amplifier (210) (Stanford Research Systems model SR830). The lock-in output is digitized (220) (National Instruments NI-USB-6211) and the digitized data is acquired by computer using LabVIEW® data acquisition software (230).

The nature of data set [3]: Photophysical properties (fluorescence excitation/emission in PBS). Type of data set: physicochemical. The following applies: 10 μM solution in PBS. The method, then:
In general, renally excretable compounds are dissolved in PBS buffer to form a 2 mM stock solution. The UV absorbance properties are determined on a 100 μM solution in PBS using a UV-3101PC UV-Vis-NIR Scanning spectrophotometer system from Shimadzu. The fluorescence properties (λex, λem, and CPS at λem) are determined on a 10 μM solution in PBS using a Fluorolog-3 spectrofluorometer system from Jobin Yvon Horiba. The percent plasma protein binding is determined on a 20 μM compound solution in rat plasma incubated at 37° C. for 1 h. The separation of free from bound is made using an Amicon Centrifree YM-30 device (Regenerated Cellulose 30,000 MWCO) and a Z400K Refrigerated Universal Centrifuge from Hermle. The concentration of protein-free is determined via HPLC analysis using a set of external calibration standards and fluorescence detection.

A short description of data set [4]: Invasive pharmacokinetic studies (plasma concentration). Type of data set: in vivo, Sprague-Dawley rats. The following applies: rat plasma, 1 mL of 2 mM solution i.v., mean ± SEM (n); for clearance: male, Sprague-Dawley, iv, 1 mL of a 2 mM solution, read-out: Pharmacokinetics Clearance. The method, then: (§1) Male Sprague-Dawley rats (330-380 g) are anesthetized by Inactin (I.P.). Rats are surgically instrumented with a trachea tube (PE-190) to facilitate breathing and femoral artery and vein catheters (PE-50 filled with 20 units/mL heparinized saline) for blood sampling and drug administration respectively. After administration of 1 mL of a 2 mM solution of agent, approximately 200 μL blood is sampled and placed into a heparinized tube (Microtainer Brand Tube w/Lithium Heparin, BD 365971) at 0, 1, 6, 12, 18, 30, 45, 60, 90, 120 min. The concentration of compound in each centrifuged plasma sample is determined via HPLC analysis using a set of external calibration standards and fluorescence detection. The resulting pharmacokinetic parameters of the compound are analyzed using WinNonLin pharmacokinetic modeling software (Pharsight, Mountain View, Calif.). This method is used to detect renally excretable compounds of the invention and FIG. 8B provides a plot illustrating invasive PK (plasma concentration) as a function of time following delivery of a renally excretable compound.

Data set [5] is described as follows: Probenecid inhibition studies (invasive pharmacokinetics after probenecid). Type of data set: in vivo, Sprague-Dawley rats. The following applies: rat plasma, 70 mg/kg Probenecid 10 min prior to test compound, values in brackets, mean ± SEM (n). The method, then: as §1
Six male Sprague-Dawley rats are treated in the same manner as described above in the invasive pharmacokinetic studies. These 6 rats receive 70 mg/kg Probenecid (Sigma-Aldrich; St. Louis, Mo.) 10 min prior to the test compound; this administration is flushed with 0.2 ml NaCl.

For `COCCOCCOCCOCCOCCOCCOCCOCCOCCOCCOCCOCCCNc1nc(C(=O)NCCOCCOCCOCCOCCOCCOCCOCCOCCOCCOCCOCCOC)c(NCCCOCCOCCOCCOCCOCCOCCOCCOCCOCCOCCOCCOC)nc1C(=O)NCCOCCOCCOCCOCCOCCOCCOCCOCCOCCOCCOCCOC` [Compound 1, 3,6-Bis(2,5,8,11,14,17,20,23,26,29,32,35-dodecaoxaoctatriacontan-38-ylamino)-N^2,N^5-di(2,5,8,11,14,17,20,23,26,29,32,35-dodecaoxaheptatriacontan-37-yl)pyrazine-2,5-dicarboxamide], the “Percent found in Urine (6 hrs)” value in data set [1] is 97 ± 0.4 (3)^b Percent. For the same molecule, the “Tissue Clearance (Optical) T1/2β” value in data set [2] was 19.9 ± 2.4 (3) min. In data set [3], the “Photophysical Properties Emission λmax” value was determined as 605 nm and the “Photophysical Properties Excitation λmax” value is 500 nm. In data set [4], the clearance is 3.1 ± 0.2 mL/min and the “Pharmacokinetics T1/2β” value is recorded as 18.8 ± 0.6 (3) min. Moreover, the clearance in data set [5] (male, Sprague-Dawley, iv, with probenecid 70 mg/kg, 10 min prior to the test compound, read-out: Pharmacokinetics Clearance, probenecid challenge experiment) was determined as 3.3 mL/min. Also, the “Pharmacokinetics T1/2β, probenecid challenge experiment” value in data set [5] is “[18.0 ± 0.3 (3)]^c min”.

With `COCCOCCOCCOCCOCCOCCOCCOCCOCCOCCOCCOCCCNc1nc(C(=O)NCCOCCOCCOCCOCCOCCOCCOCCOCCOCCOCCOCCOCCOCCOCCOCCOCCOCCOCCOCCOCCOCCOCCOCCOC)c(NCCCOCCOCCOCCOCCOCCOCCOCCOCCOCCOCCOCCOC)nc1C(=O)NCCOCCOCCOCCOCCOCCOCCOCCOCCOCCOCCOCCOCCOCCOCCOCCOCCOCCOCCOCCOCCOCCOCCOCCOC` [Compound 3, 3,6-Bis(2,5,8,11,14,17,20,23,26,29,32,35-dodecaoxaoctatriacontan-38-ylamino)-N^2,N^5-di(2,5,8,11,14,17,20,23,26,29,32,35,38,41,44,47,50,53,56,59,62,65,68,71-tetracosaoxatriheptacontan-73-yl)pyrazine-2,5-dicarboxamide], in data set [1], the “Percent found in Urine (6 hrs)” value is 89 ± 2 (3) Percent. In addition, the “Tissue Clearance (Optical) T1/2β” value in data set [2] is 20.4 ± 2.0 (4) min. In data set [3], the “Photophysical Properties Emission λmax” value turned out to be 602 nm and the “Photophysical Properties Excitation λmax” value is on record as 499 nm. Further, in data set [4], the clearance was 2.5 ± 0.2 mL/min and the “Pharmacokinetics T1/2β” value was 30.5 ± 3.2 (3) min.

`COCCOCCOCCOCCCNc1nc(C(=O)NCCOCCOCCOCCOCCOCCOCCOCCOCCOCCOCCOCCOCCOCCOCCOCCOCCOCCOCCOCCOCCOCCOCCOCCOC)c(NCCCOCCOCCOCCOC)nc1C(=O)NCCOCCOCCOCCOCCOCCOCCOCCOCCOCCOCCOCCOCCOCCOCCOCCOCCOCCOCCOCCOCCOCCOCCOCCOC` [Compound 7, 3,6-Bis(2,5,8,11-tetraoxatetradecan-14-ylamino)-N^2,N^5-di(2,5,8,11,14,17,20,23,26,29,32,35,38,41,44,47,50,53,56,59,62,65,68,71-tetracosaoxatriheptacontan-73-yl)pyrazine-2,5-dicarboxamide]: the “Percent found in Urine (6 hrs)” value in data set [1] was 97 ± 2 (3) Percent. Also, the “Tissue Clearance (Optical) T1/2β” value in data set [2] is listed as 14.6 ± 1.1 (4) min. Moreover, in data set [3], the “Photophysical Properties Emission λmax” value was 602 nm and the “Photophysical Properties Excitation λmax” value came out at 494 nm.

The term clearance denotes the rate of elimination divided by the concentration.
